Reference: patent publication US7109218B2, “Substituted 2-thio-3,5-dicyano-4-phenyl-6-aminopyridines and the use of the same” (Bayer HealthCare AG, priority 2001, dated 2006)
Read-outs that look alike come from different tables or passages of the source.

What was measured:
heart = assay: Cardiovascular effect: heart rate of isolated rat heart in Langerdorff apparatus; conditions: isolated perfused rat heart
Protocol: After the thorax has been opened, the heart is rapidly removed from anaesthetized rats and introduced into a conventional Langerdorff apparatus. The coronary arteries are perfused at constant volume (10 ml/min), and the resulting perfusion pressure is recorded by way of an appropriate pressure sensor. In this set-up, a decrease in the perfusion pressure corresponds to a relaxation of the coronary arteries. At the same time, the pressure which the heart develops during each contraction is measured by way of a balloon, which has been introduced into the left ventricle, and a second pressure sensor. The frequency of the heart, which is beating in isolation, is calculated from the number of contractions per time unit.
In this experimental set-up, the following values were obtained for the reduction in heart rate (the stated percentage refers to the reduction of the heart rate in per cent at the concentration in question): […]

adenosine A1 receptor = biological target: T1, adenosine A1 receptor (Homo sapiens, UniProt P30542); assay: Adenosine agonism indirectly by gene expression (luciferase, cAMP-dependent promoter) in transfected CHO cells, A1; format: cell-based; conditions: 1 μmolar forskolin = 100%, agonists give less than 100%
T1 construct: expressed in transfected cells; host or cells: CHO (Chinese Hamster Ovary)
T1 sequence (P30542 1-326): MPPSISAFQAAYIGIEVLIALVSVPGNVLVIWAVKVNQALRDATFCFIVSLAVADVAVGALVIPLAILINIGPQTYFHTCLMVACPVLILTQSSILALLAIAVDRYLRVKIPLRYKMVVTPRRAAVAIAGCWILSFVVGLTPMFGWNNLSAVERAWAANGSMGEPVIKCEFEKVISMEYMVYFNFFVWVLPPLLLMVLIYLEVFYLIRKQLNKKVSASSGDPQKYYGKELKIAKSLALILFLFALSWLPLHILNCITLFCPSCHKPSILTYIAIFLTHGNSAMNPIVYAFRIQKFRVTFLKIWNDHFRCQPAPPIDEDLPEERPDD
Excerpt: (§1) Cells of the CHO (Chinese Hamster Ovary) permanent cell line are transfected stably with the cDNA for the adenosine receptor subtypes A1, A2a and A2b. The adenosine A1 receptors are coupled to the adenylate cyclase by way of Gi proteins, while the adenosine A2a and A2b receptors are coupled by way of Gs proteins. In correspondence with this, the formation of cAMP in the cell is inhibited or stimulated, respectively. After that, expression of the luciferase is modulated by way of a cAMP-dependent promoter. The luciferase test is optimized, with the aim of high sensitivity and reproducibility, low variance and good suitability for implementation on a robot system, by varying several test parameters, such as cell density, duration of the growth phase and the test incubation, forskolin concentration and medium composition. The following test protocol is used for pharmacologically characterizing cells and for the robot-assisted substance test screening.
(§2) The stock cultures are grown, at 37° C. and under 5% CO2, in DMEM/F12 medium containing 10% FCS (foetal calf serum) and in each case split 1:10 after 2–3 days. The test cultures are seeded in 384-well plates at the rate of from 1 000 to 3 000 cells per well and grown at 37° C. for approx. 48 hours. The medium is then replaced with a physiological sodium chloride solution (130 mM sodium chloride, 5 mM potassium chloride, 2 mM calcium chloride, 20 mM HEPES, 1 mM magnesium chloride 6H2O, 5 mM NaHCO3, pH 7.4). The substances, which are dissolved in DMSO, are diluted 1:10 three times with this physiological sodium chloride solution and pipetted into the test cultures (maximum final concentration of DMSO in the test mixture: 0.5%). In this way, final substance concentrations of, for example, from 5 μM to 5 nM are obtained. 10 minutes later, forskolin is added to the A1 cells and all the cultures are subsequently incubated at 37° C. for four hours. After that, 35 μl of a solution which is composed of 50% lysis reagent (30 mM disodium hydrogenphosphate, 10% glycerol, 3% TritonX100, 25 mM TrisHCl, 2 mM dithiothreitol (DTT), pH 7.8) and 50% luciferase substrate solution (2.5 mM ATP, 0.5 mM luciferin, 0.1 mM coenzyme A, 10 mM tricine, 1.35 mM magnesium sulphate, 15 mM DTT, pH 7.8) are added to the test cultures, the plates are shaken for approx. 1 minute and the luciferase activity is measured using a camera system.
(§3) The table gives the % values of the corresponding reference stimulus. The measured values for the A2a and A2b receptors are values in per cent of the maximum stimulation achieved by NECA; the measured values for the A1 receptor are values in per cent following direct prestimulation of the adenylate cyclase with 1 μmolar forskolin (corresponds to the 100% value).

adenosine A2a receptor = biological target: T2, adenosine A2a receptor (Homo sapiens, UniProt P29274); assay: Adenosine agonism indirectly by gene expression (luciferase, cAMP-dependent promoter) in transfected CHO cells, A2a; format: cell-based; conditions: read-out: Stimulation of adenosine A2a receptor (% of the maximum stimulation achieved by NECA)
T2 construct: expressed in transfected cells; host or cells: CHO (Chinese Hamster Ovary)
Excerpt: as §1, §2, §3

adenosine A2b receptor = biological target: T3, adenosine A2b receptor (Homo sapiens, UniProt P29275); assay: Adenosine agonism indirectly by gene expression (luciferase, cAMP-dependent promoter) in transfected CHO cells, A2b; format: cell-based; conditions: read-out: Stimulation of adenosine A2b receptor (% of the maximum stimulation achieved by NECA)
T3 construct: expressed in transfected cells; host or cells: CHO (Chinese Hamster Ovary)
T3 sequence (P29275 1-332): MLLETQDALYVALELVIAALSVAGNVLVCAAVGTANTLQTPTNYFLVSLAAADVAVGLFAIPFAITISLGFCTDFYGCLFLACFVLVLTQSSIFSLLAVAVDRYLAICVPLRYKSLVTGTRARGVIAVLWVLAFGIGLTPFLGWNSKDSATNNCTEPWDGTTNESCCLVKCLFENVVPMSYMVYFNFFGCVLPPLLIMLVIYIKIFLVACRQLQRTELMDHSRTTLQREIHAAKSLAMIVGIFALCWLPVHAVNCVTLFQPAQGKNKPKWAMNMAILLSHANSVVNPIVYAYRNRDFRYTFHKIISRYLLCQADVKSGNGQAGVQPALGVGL
Excerpt: as §1, §2, §3

[1] = Pharmacokinetic investigation, oral bioavailability in mice; format: in vivo; conditions: plasma, Mouse, read-out: Bioavailability following oral administration
Protocol: (§4) Pharmacokinetic data were determined after administering various substances i.v. or p.o. as solutions to mice, rats and dogs. For this, blood samples were collected up to 24 hours after administration. The concentrations of the unaltered substance were determined by bioanalytical methods (HPLC or HPLC-MS) in the plasma samples which were obtained from the blood samples. Pharmacokinetic parameters were subsequently ascertained from the plasma concentration time courses which had been obtained in this way. The following Table 2 gives the bioavailability in the different species.

[2] = Pharmacokinetic investigation, oral bioavailability in rats; format: in vivo; conditions: plasma, Rat, at 3 mg/kg p.o., read-out: Bioavailability following oral administration
Protocol: as §4

[3] = Pharmacokinetic investigation, oral bioavailability in dogs; format: in vivo; conditions: plasma, Dog, read-out: Bioavailability following oral administration
Protocol: as §4

[4] = at a concentration of 10^−6 g/ml
[5] = at a concentration of 10^−7 g/ml

T2 sequence (P29274 whole entry): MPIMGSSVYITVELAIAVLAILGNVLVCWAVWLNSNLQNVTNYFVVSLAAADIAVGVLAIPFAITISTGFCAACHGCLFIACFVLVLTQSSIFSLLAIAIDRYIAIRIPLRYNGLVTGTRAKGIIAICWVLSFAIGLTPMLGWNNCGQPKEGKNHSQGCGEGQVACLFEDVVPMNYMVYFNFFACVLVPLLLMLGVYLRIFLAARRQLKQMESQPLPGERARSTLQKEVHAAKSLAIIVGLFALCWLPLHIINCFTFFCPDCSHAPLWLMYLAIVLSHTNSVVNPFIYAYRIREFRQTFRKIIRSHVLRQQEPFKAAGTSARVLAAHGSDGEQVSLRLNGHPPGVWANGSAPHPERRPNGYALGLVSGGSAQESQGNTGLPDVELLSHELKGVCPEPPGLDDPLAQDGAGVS

bioavailability ([1]; at 1 mg/kg p.o.)	bioavailability ([3]; at 3 mg/kg p.o.)	Compound	Reduction of the heart rate in percent (heart; [4])	Reduction of the heart rate in percent (heart; [5])	Stimulation of adenosine A1 receptor (luciferase activity in % of forskolin prestimulation) (adenosine A1 receptor; 0.3 nmol)	Stimulation of adenosine A1 receptor (luciferase activity in % of forskolin prestimulation) (adenosine A1 receptor; 1 nmol)	Stimulation of adenosine A1 receptor (luciferase activity in % of forskolin prestimulation) (adenosine A1 receptor; 10 nmol)	Emax (adenosine A2a receptor; 0.3 nmol)	Emax (adenosine A2a receptor; 1 nmol)	Emax (adenosine A2a receptor; 10 nmol)	Emax (adenosine A2b receptor; 0.3 nmol)	Emax (adenosine A2b receptor; 1 nmol)	Emax (adenosine A2b receptor; 10 nmol)	bioavailability [2]	bioavailability ([1]; at 3 mg/kg p.o.)	bioavailability ([3]; at 1 mg/kg p.o.)
31.5%	32.6%	COCCOc1ccc(-c2c(C#N)c(N)nc(SCc3cccnc3)c2C#N)cc1 [Example 1, 2-Amino-4-[4-(2-methoxyethoxy)phenyl]-6-[(3-pyridinylmethyl)sulphanyl]pyridine-3,5-dicarbonitrile]	17.5%	15.0%	56%	11%	4%	-1%	2%	-2%	2%	6%	8%	5%	–	–
–	–	N#Cc1c(N)nc(SCc2csc(-c3ccc(Cl)cc3)n2)c(C#N)c1-c1ccc(OCCO)cc1 [Example 6, 2-Amino-6-({[2-(4-chlorophenyl)-1,3-thiazol-4-yl]methyl}sulphanyl)-4-[4-(2-hydroxyethoxy)phenyl]pyridine-3,5-dicarbonitrile]	20.0%	15.5%	45%	25%	7%	0%	4%	2%	0%	3%	29%	42.3%	41.3%	28.5%
